Earlier results on 1 substance are cited in publication PMC7275090, “Mode of action of teixobactins in cellular membranes” (Nature Communications, 2020).

The test system of this data set is bacteria. The settings on record: cited from earlier work.

As for Teixobactin, the “antibacterial activity” value is reported as “excellent activity”.
